Patent US20230094404A1, “METHOD FOR PREPARATION OF HETEROCYCLICAMINE DERIVATIVES” (Daewoong Pharmaceutical Co., Ltd., priority 2020, published 2023)

Experiments:
[1] = target: T1, BTK (Homo sapiens, UniProt Q06187); assay: ADP-Glo BTK Kinase enzyme system inhibitory activity; type: biochemical; settings: ADP-Glo kit (Promega), ATP 10 uM, duplicate; read-out: inhibitory activity against BTK (BTK IC50)
T1 construct: purchased Promega Corporation
Description: (§1) Inhibitory activities against BTK and ITK were measured for the compound represented by Chemical Formula 1 prepared in the above Examples as follows.
The inhibitory activities against BTK were evaluated using ‘ADP-GIo™+BTK Kinase enzyme system’ kit (Promega Corporation). In a white 96-well plate, 10 ? of BTK enzyme prepared so as to have a final concentration of 10 ng/ ? was mixed with 5 ? of compounds having a final concentration of 1 uM in the case of evaluating a single concentration of compound and a concentration of 1000, 200, 40, 8, 1.6 and 0.32 nM in the case of IC50 evaluation, and then reacted at room temperature for 15 minutes. 5 ? of substrate and 5 ? of ATP prepared so as to have a final concentration of 10 uM were added to the plate on which reactions were completed, and then allowed to react at 30° C. for 1 hour. All wells of the plate on which reactions were completed were treated with 25 ? of ADP-Glo™ reagent and allowed to react at 30° C. for 40 minutes. […] For the plate on which all reactions were completed, luminescence was measured and the results were calculated. Evaluation was carried out in duplicate, and negative control and positive control were calculated depending on whether or not the enzyme was added without treatment of the compound. The IC50 was calculated based on the calculated values.

[2] = target: T2, ITK (Homo sapiens, UniProt Q08881); assay: ADP-Glo ITK Kinase enzyme system inhibitory activity; type: biochemical; settings: ADP-Glo kit (Promega), ATP 25 uM, duplicate; read-out: inhibitory activity against ITK (ITK IC50)
T2 construct: purchased Promega Corporation
T2 sequence (Q08881 1-620): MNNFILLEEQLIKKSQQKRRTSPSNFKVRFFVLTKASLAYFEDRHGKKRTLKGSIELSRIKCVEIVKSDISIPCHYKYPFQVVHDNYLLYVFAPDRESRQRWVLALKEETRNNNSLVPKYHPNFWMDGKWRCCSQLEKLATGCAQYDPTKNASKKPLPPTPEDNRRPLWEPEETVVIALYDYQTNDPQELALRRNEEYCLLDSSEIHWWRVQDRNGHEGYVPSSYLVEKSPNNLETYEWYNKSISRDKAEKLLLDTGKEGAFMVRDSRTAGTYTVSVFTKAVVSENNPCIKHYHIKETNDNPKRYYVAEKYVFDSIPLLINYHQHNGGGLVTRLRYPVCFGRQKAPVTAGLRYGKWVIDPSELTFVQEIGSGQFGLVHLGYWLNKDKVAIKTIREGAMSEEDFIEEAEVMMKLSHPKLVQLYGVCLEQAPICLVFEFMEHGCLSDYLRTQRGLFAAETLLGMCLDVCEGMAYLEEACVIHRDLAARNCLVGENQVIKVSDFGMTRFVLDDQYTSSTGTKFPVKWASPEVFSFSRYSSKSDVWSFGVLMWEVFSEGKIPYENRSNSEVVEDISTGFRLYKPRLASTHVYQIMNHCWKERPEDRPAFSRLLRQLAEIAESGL
Description: as §1
In addition, the inhibitory activity against ITK was evaluated using ‘ADP-GIo™+ITK Kinase enzyme system’ kit (Promega Corporation). In a white 96-well plate, 10 ? of ITK enzyme prepared so as to have a final concentration of 4 ng/ ? was mixed with 5 ? of compounds having a final concentration of 1 uM in the case of evaluating a single concentration of compound and a concentration of 1000, 200, 40, 8, 1.6 and 0.32 nM in the case of IC50 evaluation, and then reacted at room temperature for 15 minutes. To the plate on which reactions were completed, 5 ul of substrate and 5 ? of ATP prepared so as to have a final concentration of 25 uM were added and then allowed to react at 30° C. for 1 hour. All wells of the plate on which reactions were completed were treated with 25 ? of ADP-Glo™ reagent and then allowed to react at 30° C. for 40 minutes. […] For the plate on which all reactions were completed, luminescence was measured and the results were calculated. Evaluation was carried out in duplicate, and negative control and positive control were calculated depending on whether or not the enzyme was added without treatment of the compound. The IC50 was calculated based on the calculated values.

T1 sequence (Q06187 whole entry): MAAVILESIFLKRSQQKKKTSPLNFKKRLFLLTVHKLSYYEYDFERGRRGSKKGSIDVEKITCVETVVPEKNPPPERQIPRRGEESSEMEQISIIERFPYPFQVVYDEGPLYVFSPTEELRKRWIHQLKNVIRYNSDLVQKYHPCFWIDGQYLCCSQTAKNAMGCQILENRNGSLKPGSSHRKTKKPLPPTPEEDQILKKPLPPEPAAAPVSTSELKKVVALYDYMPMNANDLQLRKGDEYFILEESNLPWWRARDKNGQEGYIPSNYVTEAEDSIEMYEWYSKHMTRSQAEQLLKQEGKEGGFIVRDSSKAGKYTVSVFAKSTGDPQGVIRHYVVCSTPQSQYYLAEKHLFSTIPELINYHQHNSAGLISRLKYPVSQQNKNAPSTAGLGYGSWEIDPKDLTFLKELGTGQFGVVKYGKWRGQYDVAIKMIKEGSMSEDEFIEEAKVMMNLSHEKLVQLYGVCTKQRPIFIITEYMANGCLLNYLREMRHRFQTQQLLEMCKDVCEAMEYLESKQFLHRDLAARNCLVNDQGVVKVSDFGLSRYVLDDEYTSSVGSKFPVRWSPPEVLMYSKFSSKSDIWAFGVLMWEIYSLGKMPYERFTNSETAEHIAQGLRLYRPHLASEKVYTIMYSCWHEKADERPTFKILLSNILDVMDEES

IC50 [1]: 0.4 to 1.4 nM | IC50 [2]: 1 to 1.7 nM
SMILES: C=CC(=O)N1CCC[C@H](Nc2cc(CN3CCOCC3)cc(Nc3ncc(C)s3)n2)C1 [Chemical Formula 1, (S)-1-(3-((6-((5-methylthiazol-2-yl)amino)-4-(morpholinomethyl)pyridin-2-yl)amino)piperidin-1-yl)prop-2-en-1-one]
